# Measurements: PubChem BioAssay (NCI)
# “And” between values parts separate entries of the source, which are not always exact repeats. Equal values may be shown once.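 Each compound was tested at five concentrations against cells in 96-well plates for 48 hours. Abbreviation: GI50, concentration required for 50% inhibition of growth. TGI marks complete inhibition of growth.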
# What was measured:
# Assay in all cases: growth of human tumour cells (NCI), 48 h
# [1] = test system: LOX IMVI melanoma
# [2] = test system: OVCAR-3 ovarian
# [3] = test system: NCI-H226 lung
# [4] = test system: UO-31 renal
# [5] = test system: HT29 colon
# [6] = test system: IGROV1 ovarian
# [7] = test system: OVCAR-5 ovarian
# [8] = test system: NCI-H522 lung
# [9] = test system: SW-620 colon
# [10] = test system: DLD-1 colon
# [11] = test system: SK-MEL-28 melanoma
# [12] = test system: SK-OV-3 ovarian
# [13] = test system: 786-0 renal
# [14] = test system: HOP-18 NSCLC
# [15] = test system: OVCAR-4 ovarian
# [16] = test system: M14 melanoma
# [17] = test system: SK-MEL-2 melanoma
# [18] = test system: HCT-116 colon
# [19] = test system: RPMI-8226 leukemia
# [20] = test system: EKVX NSCLC
# [21] = test system: M19-MEL melanoma
# [22] = test system: NCI-H23 lung
# [23] = test system: HL-60(TB) leukemia
# [24] = test system: SF-539 CNS
# [25] = test system: CAKI-1 renal
# [26] = test system: HCC-2998 colon
# [27] = test system: K-562 leukemia
# [28] = test system: HOP-62 NSCLC
# [29] = test system: TK-10 renal
# [30] = test system: UACC-62 melanoma
# [31] = test system: UACC-257 melanoma
# [32] = test system: A498 renal
# [33] = test system: SN12C renal
# [34] = test system: OVCAR-8 ovarian
# [35] = test system: SNB-75 CNS
# [36] = test system: XF 498 CNS
# [37] = test system: A549 NSCLC
# [38] = test system: SNB-78 CNS
# [39] = test system: U251 CNS
# [40] = test system: SF-295 CNS
# [41] = test system: KM20L2 colon
# [42] = test system: SK-MEL-5 melanoma
# [43] = test system: SNB-19 CNS
# [44] = test system: SR leukemia
# [45] = test system: MOLT-4 leukemia
# [46] = test system: NCI-H460 lung
# [47] = test system: KM12 colon
# [48] = test system: ACHN renal
# [49] = test system: MALME-3M melanoma
# [50] = test system: DMS 273 small cell lung
# [51] = test system: CCRF-CEM leukemia
# [52] = test system: LXFL 529 NSCLC
# [53] = test system: SF-268 CNS
# [54] = test system: HCT-15 colon
# [55] = test system: HOP-92 NSCLC
# [56] = test system: COLO 205 colon
# [57] = test system: T-47D breast
# [58] = test system: MDA-MB-435
# [59] = test system: DU-145 prostate
# [60] = test system: MCF7 breast
# [61] = test system: MDA-N
# [62] = test system: BT-549 breast
# [63] = test system: PC-3 prostate
# [64] = test system: HS 578T breast
# [65] = test system: MDA-MB-231 breast
# [66] = test system: DMS 114 small cell lung
# [67] = test system: RXF 393 renal
smiles,measurement,setting,value
C/C(NNC(=O)c1ccccc1O)=C1\C=Nc2ccccc2S1,TGI,[1],> 100 µM
same,TGI,[2],> 100 µM
same,TGI,[3],33.1 µM
same,TGI,[4],5.68 µM
same,TGI,[5],> 100 µM
same,TGI,[6],> 100 µM
same,TGI,[7],> 100 µM
same,TGI,[8],> 100 µM
same,TGI,[9],> 100 µM
same,TGI,[10],> 100 µM
same,TGI,[11],> 100 µM
same,TGI,[12],> 100 µM
same,TGI,[13],29.3 µM
same,TGI,[14],49.6 µM
same,TGI,[15],> 100 µM
same,TGI,[16],31.1 µM
same,TGI,[17],6.79 µM
same,TGI,[18],> 100 µM
same,TGI,[19],> 100 µM
same,TGI,[20],> 100 µM
same,TGI,[21],> 100 µM
same,TGI,[22],> 100 µM
same,TGI,[23],41.9 µM
same,TGI,[24],7.81 µM
same,TGI,[25],> 100 µM
same,TGI,[26],7.45 µM
same,TGI,[27],> 100 µM
same,TGI,[28],> 100 µM
same,TGI,[29],> 100 µM
same,TGI,[30],9.61 µM
same,TGI,[31],> 100 µM
same,TGI,[32],> 100 µM
same,TGI,[33],55.6 µM
same,TGI,[34],> 100 µM
same,TGI,[35],43.8 µM
same,TGI,[36],> 100 µM
same,TGI,[37],28.2 µM
same,TGI,[38],> 100 µM
same,TGI,[39],> 100 µM
same,TGI,[40],> 100 µM
same,TGI,[41],> 100 µM
same,TGI,[42],> 100 µM
same,TGI,[43],> 100 µM
same,TGI,[44],> 100 µM
same,TGI,[45],> 100 µM
same,TGI,[46],24.7 µM
same,TGI,[47],> 100 µM
same,TGI,[48],> 100 µM
same,TGI,[49],27.6 µM
same,TGI,[50],> 100 µM
same,TGI,[51],> 100 µM
same,TGI,[52],> 100 µM
same,TGI,[53],> 100 µM
N#C/C(=C\c1ccc(O)c(O)c1)c1c(C#N)c(N)nn1-c1ccccc1,TGI,[1],44 µM
same,TGI,[2],6.63 µM
same,TGI,[4],62 µM
same,TGI,[5],65.8 µM
same,TGI,[6],14.5 µM
same,TGI,[7],> 100 µM
same,TGI,[8],13.2 µM
same,TGI,[9],> 100 µM
same,TGI,[10],> 100 µM
same,TGI,[11],> 100 µM
same,TGI,[12],36.5 µM
same,TGI,[13],21.1 µM
same,TGI,[14],29.1 µM
same,TGI,[15],38.7 µM
same,TGI,[16],31.9 µM
same,TGI,[17],49.8 µM
same,TGI,[18],19.6 µM
same,TGI,[20],69.7 µM
same,TGI,[21],94.6 µM
same,TGI,[22],25.3 µM
same,TGI,[23],32.7 µM
same,TGI,[24],18.9 µM
same,TGI,[25],9.05 µM
same,TGI,[26],26.4 µM
same,TGI,[27],55.9 µM
same,TGI,[28],40.8 µM
same,TGI,[29],> 100 µM
same,TGI,[30],> 100 µM
same,TGI,[31],> 100 µM
same,TGI,[32],9.63 µM
same,TGI,[33],39.4 µM
same,TGI,[34],29.2 µM
same,TGI,[35],> 100 µM
same,TGI,[37],39.3 µM
same,TGI,[38],> 100 µM
same,TGI,[39],20.6 µM
same,TGI,[40],47.7 µM
same,TGI,[41],> 100 µM
same,TGI,[54],36.8 µM
same,TGI,[42],34.4 µM
same,TGI,[43],42.4 µM
same,TGI,[46],38.3 µM
same,TGI,[47],> 100 µM
same,TGI,[55],> 100 µM
same,TGI,[48],26.9 µM
same,TGI,[49],26.8 µM
same,TGI,[50],18.5 µM
same,TGI,[51],37.5 µM
same,TGI,[52],92.5 µM
same,TGI,[56],61.1 µM
same,TGI,[53],> 100 µM
CC[C@@]1(O)C(=O)OCc2c1cc1n(c2=O)Cc2cc3cc(Cl)ccc3nc2-1,GI50,[1],0.00191 µM
same,GI50,[2],0.0456 µM and 0.137 µM
same,TGI,[2],0.274 µM and 0.452 µM
same,GI50,[57],0.00335 µM
same,TGI,[57],0.167 µM
same,GI50,[3],0.00345 µM
same,TGI,[3],0.108 µM and 0.117 µM
same,GI50,[58],0.089 µM
same,TGI,[58],0.357 µM
same,GI50,[59],0.00491 µM
same,GI50,[4],0.00266 µM
same,TGI,[4],0.0816 µM
same,GI50,[5],0.0269 µM and 0.0187 µM
same,TGI,[5],0.203 µM
same,GI50,[6],0.0327 µM and 0.162 µM
same,TGI,[6],1.85 µM and 2.34 µM
same,GI50,[7],0.0635 µM and 0.0706 µM
same,TGI,[7],0.363 µM and 0.318 µM
same,GI50,[8],0.00946 µM and 0.022 µM
same,TGI,[8],0.298 µM and 0.843 µM
same,TGI,[9],2.37 µM and 5.23 µM
same,GI50,[60],0.00364 µM
same,GI50,[10],0.108 µM and 0.346 µM
same,TGI,[10],> 100 µM
same,GI50,[11],0.0542 µM and 0.0355 µM
same,TGI,[11],4.52 µM and 8.65 µM
same,GI50,[12],0.0152 µM
same,TGI,[12],39.9 µM
same,GI50,[13],0.00519 µM
same,TGI,[13],0.327 µM
same,GI50,[61],0.0286 µM
same,TGI,[61],0.374 µM
same,GI50,[62],0.0562 µM
same,TGI,[62],2.44 µM
same,GI50,[63],0.0427 µM
same,GI50,[15],0.125 µM and 0.249 µM
same,GI50,[64],0.445 µM
same,GI50,[65],0.094 µM
same,TGI,[65],4.69 µM
same,GI50,[16],0.00467 µM
same,TGI,[16],0.0853 µM and 0.0476 µM
same,GI50,[17],0.169 µM and 0.187 µM
same,TGI,[17],0.677 µM and 0.691 µM
same,GI50,[19],0.0132 µM and 0.0334 µM
same,GI50,[20],0.282 µM and 0.302 µM
same,TGI,[20],5.73 µM and 4.9 µM
same,GI50,[21],0.0167 µM and 0.0195 µM
same,TGI,[21],0.224 µM and 0.19 µM
same,GI50,[22],0.00226 µM
same,TGI,[22],0.00545 µM and 0.0196 µM
same,GI50,[23],0.00156 µM and 0.0131 µM
same,GI50,[24],0.00467 µM
same,TGI,[25],1.07 µM and 1.19 µM
same,GI50,[26],0.0277 µM and 0.0364 µM
same,TGI,[26],0.202 µM and 0.32 µM
same,GI50,[27],0.00916 µM and 0.0873 µM
same,TGI,[27],> 100 µM
same,GI50,[28],< 0.001 µM
same,GI50,[29],2.58 µM and 1.87 µM
same,TGI,[29],> 100 µM
same,GI50,[30],0.00183 µM
same,GI50,[31],0.0389 µM and 0.0857 µM
same,TGI,[31],0.953 µM and 1.11 µM
same,GI50,[32],0.00878 µM and 0.0517 µM
same,TGI,[32],0.132 µM and 0.221 µM
same,GI50,[33],0.00207 µM
same,TGI,[33],0.12 µM and 0.243 µM
same,GI50,[34],0.00117 µM and 0.0112 µM
same,TGI,[34],0.109 µM and 0.203 µM
same,GI50,[66],< 0.001 µM
same,GI50,[35],0.00253 µM
same,TGI,[35],0.053 µM and 0.0414 µM
same,GI50,[37],0.00656 µM
same,TGI,[37],1.42 µM and 1.21 µM
same,GI50,[38],0.0711 µM and 0.0581 µM
same,GI50,[39],0.00197 µM
same,TGI,[39],0.0234 µM
same,GI50,[67],0.0106 µM
same,TGI,[67],0.137 µM
same,GI50,[40],< 0.001 µM
same,TGI,[40],0.0893 µM
same,GI50,[41],0.00997 µM and 0.0271 µM
same,TGI,[41],0.144 µM and 0.461 µM
same,GI50,[54],0.0559 µM and 0.106 µM
same,TGI,[54],10.5 µM
same,GI50,[42],0.0082 µM and 0.0181 µM
same,TGI,[42],0.0501 µM and 0.0636 µM
same,GI50,[43],0.00345 µM
same,TGI,[43],0.866 µM and 3.82 µM
same,GI50,[44],0.00232 µM and 0.0143 µM
same,GI50,[45],0.00119 µM
same,GI50,[46],< 0.001 µM
same,TGI,[46],0.0118 µM
same,GI50,[47],0.0485 µM and 0.127 µM
same,TGI,[47],0.195 µM and 0.446 µM
same,GI50,[55],0.0256 µM and 0.0415 µM
same,TGI,[55],1.32 µM and 0.709 µM
same,GI50,[48],0.00228 µM
same,TGI,[48],0.0107 µM
same,GI50,[49],0.0305 µM and 0.0444 µM
same,TGI,[49],0.818 µM and 0.564 µM
same,GI50,[50],< 0.001 µM
same,TGI,[50],0.0211 µM and 0.14 µM
same,TGI,[51],> 100 µM
same,GI50,[52],0.108 µM
same,TGI,[52],2.22 µM
same,GI50,[56],0.02 µM and 0.0458 µM
same,TGI,[56],1.41 µM and 1.47 µM
same,GI50,[53],0.00403 µM
